Laboratory results reported in patent US7371822B2, “Human G-protein coupled receptor variant of HM74, HGPRBMY74” (Bristol-Myers Squibb Company, priority 2003, dated 2008).
Like-named read-outs stand apart in the source and are kept apart here.

System: human kidney 293E cells stably transfected with Gαiq—5
Assay: cells
Conditions: 293E cells with Gαiq—5 coding region only
Protocol: The growth medium in the 6-well plate was replaced with antibiotic-free medium at 3 ml per well. DNA complexes were added at 320 μl per well and plates were returned to the incubator. […] 25 μl of this suspension was added to 30 ml of selective medium in a 15 cm tissue culture plate. Cells were maintained in selective medium for approximately two weeks. Five single clones were isolated and grown in 24-well, then 6-well, then T-75 tissue culture plates.
Thirty hours later cells were loaded with 100 μl loading dye. […] A stock solution of Probenecid (Sigma P8761) was prepared by dissolving 70 mg in 500 μl 1 M NaOH and then adding 500 μl of FIPR assay buffer. This was added to the loading solution at a final concentration of 700 μg/ml. After adding the loading dye, cells were returned to the incubator for one hour.
After one hour loading, dye was removed from the wells by gentle aspiration and replaced with 120 μl of FLIPR assay buffer.
Data were analyzed and plotted using XLfit (IDBS).

O=C(O)c1cccnc1 [nicotinic acid, Nicotinic acid]
EC50 (Homo sapiens, read-out: calculated EC50, FIG. 5): 833 nM
EC50 (read-out: calculated EC50, FIG. 5): 823 nM
